“And” between values parts separate entries of the source, which are not always exact repeats. Identical values can stand only once. Toxic doses and inconclusive results are not listed.

The subject of this test is CD2F1 mice, L1210 leukemia ip, survival T/C. The experiment in a line: NCI In Vivo Anticancer Drug Screen. Data for tumor model L1210 Leukemia (intraperitoneal) in CD2F1 (CDF1) mice. The note with it: higher = longer survival. The method, boiled down:
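Implant tumor; dose compound or vehicle; measure endpoint in both groups; report treated divided by control.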

Setting [1] is: endpoint: mean survival time, dose: 100.0 mg/kg/injection, schedule: Q04DX003 (ip), vehicle: saline with Tween-80.
Setting [2] is: endpoint: mean survival time, dose: 200.0 mg/kg/injection, schedule: Q04DX003 (ip), vehicle: saline with Tween-80.
[3] abbreviates: endpoint: mean survival time, dose: 400.0 mg/kg/injection, schedule: Q04DX003 (ip), vehicle: saline with Tween-80.
The mark [4] stands for this setting: endpoint: mean survival time, dose: 100.0 mg/kg/injection, schedule: Q01DX001 (ip), vehicle: saline.
[5] abbreviates: endpoint: mean survival time, dose: 200.0 mg/kg/injection, schedule: Q01DX001 (ip), vehicle: saline.
Where [6] appears, read: endpoint: mean survival time, dose: 400.0 mg/kg/injection, schedule: Q01DX001 (ip), vehicle: saline.

With `CCCCNCC(=O)O[C@]1(CC)C(=O)OCc2c1cc1n(c2=O)Cc2cc3ccccc3nc2-1`, the T/C by setting is: (endpoint: median survival time, dose: 7.5 mg/kg/injection, schedule: Q04DX002 (ip), vehicle: saline) 109 % of control; (endpoint: median survival time, dose: 7.5 mg/kg/injection, schedule: Q04HX004 (iv), vehicle: dextrose) 150 % of control; (endpoint: median survival time, dose: 7.5 mg/kg/injection, schedule: Q04HX004 (iv), vehicle: other) 158 % of control; (endpoint: median survival time, dose: 15.0 mg/kg/injection, schedule: Q04DX002 (ip), vehicle: saline) 117 % of control and 124 % of control; (endpoint: median survival time, dose: 15.0 mg/kg/injection, schedule: Q04HX004 (iv), vehicle: dextrose) 172 % of control; (endpoint: median survival time, dose: 15.0 mg/kg/injection, schedule: Q04HX004 (iv), vehicle: other) 186 % of control. Moreover, the T/C runs as follows: (endpoint: median survival time, dose: 30.0 mg/kg/injection, schedule: Q04DX002 (ip), vehicle: saline) 158 % of control; (endpoint: median survival time, dose: 30.0 mg/kg/injection, schedule: Q04HX004 (iv), vehicle: dextrose) 218 % of control; (endpoint: median survival time, dose: 30.0 mg/kg/injection, schedule: Q04HX004 (iv), vehicle: other) 235 % of control; (endpoint: median survival time, dose: 40.0 mg/kg/injection, schedule: Q04HX004 (iv), vehicle: other) 247 % of control; (endpoint: median survival time, dose: 60.0 mg/kg/injection, schedule: Q04DX002 (ip), vehicle: saline) 195 % of control and 212 % of control.
On to `CC1CC[N+](C)(CC(=O)c2ccc(-c3ccc(C(=O)C[N+]4(C)CCC(C)CC4)cc3)cc2)CC1` (stereo not drawn), for which the T/C (endpoint: mean survival time, dose: 0.02 mg/kg/injection, schedule: Q04DX003 (ip), vehicle: Klucel (hydroxypropylcellulose) (HPC)) is 96 % of control; the T/C (endpoint: mean survival time, dose: 0.04 mg/kg/injection, schedule: Q04DX003 (ip), vehicle: Klucel (hydroxypropylcellulose) (HPC)) is 98 % of control; the T/C (endpoint: mean survival time, dose: 0.08 mg/kg/injection, schedule: Q04DX003 (ip), vehicle: Klucel (hydroxypropylcellulose) (HPC)) was 87 % of control and 95 % of control.
Consider `COC(=O)C1CCC(C(=O)O)CC1` (stereo not drawn), for which the T/C reads like this: (endpoint: mean survival time, dose: 100.0 mg/kg/injection, schedule: Q01DX009 (ip), vehicle: saline with Tween-80) 92 % of control; under setting [1], 101 % of control; (endpoint: mean survival time, dose: 200.0 mg/kg/injection, schedule: Q01DX009 (ip), vehicle: saline with Tween-80) 94 % of control; under setting [2], 97 % of control; (endpoint: mean survival time, dose: 400.0 mg/kg/injection, schedule: Q01DX009 (ip), vehicle: saline with Tween-80) 89 % of control; under setting [3], 95 % of control.
For the molecule `O=S(=O)(NN=C(c1ccccc1)c1ccccc1)c1ccccc1`, the T/C runs as follows: (endpoint: mean survival time, dose: 12.5 mg/kg/injection, schedule: Q01DX009 (ip), vehicle: Klucel (hydroxypropylcellulose) (HPC)) 96 % of control; (endpoint: mean survival time, dose: 25.0 mg/kg/injection, schedule: Q01DX009 (ip), vehicle: Klucel (hydroxypropylcellulose) (HPC)) 100 % of control; (endpoint: mean survival time, dose: 50.0 mg/kg/injection, schedule: Q01DX009 (ip), vehicle: Klucel (hydroxypropylcellulose) (HPC)) 92 % of control; (endpoint: mean survival time, dose: 100.0 mg/kg/injection, schedule: Q01DX009 (ip), vehicle: Klucel (hydroxypropylcellulose) (HPC)) 94 % of control; (endpoint: mean survival time, dose: 200.0 mg/kg/injection, schedule: Q01DX009 (ip), vehicle: Klucel (hydroxypropylcellulose) (HPC)) 92 % of control; (endpoint: mean survival time, dose: 400.0 mg/kg/injection, schedule: Q01DX009 (ip), vehicle: Klucel (hydroxypropylcellulose) (HPC)) 92 % of control.
In the case of `CN(C)c1ccc(-c2nnc(-c3ccc(N(C)C)cc3)nn2)cc1`, the T/C runs as follows: under setting [1], 93 % of control; under setting [2], 92 % of control; under setting [3], 95 % of control.
As for `CC(C)(C)S(=O)O`, the T/C under setting [4] is 101 % of control, the T/C under setting [5] was 94 % of control and the T/C under setting [6] was 100 % of control.
Regarding `CC[C@]1(O)C[C@H]2CN(CCc3c([nH]c4ccccc34)[C@@](C(=O)OC)(c3cc4c(cc3OC)N(C=O)[C@H]3[C@@](O)(C(=O)OC)[C@H](OC(C)=O)[C@]5(CC)C=CCN6CC[C@]43[C@@H]65)C2)C1`, the T/C runs as follows: (endpoint: mean survival time, dose: 0.08 mg/kg/injection, schedule: Q01DX009 (ip), vehicle: water) 121 % of control; (endpoint: mean survival time, dose: 0.13 mg/kg/injection, schedule: Q01DX009 (ip), vehicle: water) 122 % of control; (endpoint: mean survival time, dose: 0.2 mg/kg/injection, schedule: Q04DX003 (ip), vehicle: saline) 115 % of control; (endpoint: mean survival time, dose: 0.2 mg/kg/injection, schedule: Q04DX003 (ip), vehicle: water) 106 % of control; (endpoint: mean survival time, dose: 0.23 mg/kg/injection, schedule: Q04DX003 (ip), vehicle: water) 121 % of control and 98 % of control; (endpoint: mean survival time, dose: 0.36 mg/kg/injection, schedule: Q01DX009 (ip), vehicle: water) 104 % of control. In addition, the T/C was 118 % of control and 108 % of control (endpoint: mean survival time, dose: 0.39 mg/kg/injection, schedule: Q04DX003 (ip), vehicle: water); 106 % of control and 112 % of control (endpoint: mean survival time, dose: 0.4 mg/kg/injection, schedule: Q04DX003 (ip), vehicle: water); 102 % of control (endpoint: mean survival time, dose: 0.5 mg/kg/injection, schedule: Q01DX009 (ip), vehicle: saline); 117 % of control and 120 % of control and 112 % of control (endpoint: mean survival time, dose: 0.5 mg/kg/injection, schedule: Q04DX004 (ip), vehicle: saline); 112 % of control (endpoint: mean survival time, dose: 0.65 mg/kg/injection, schedule: Q04DX003 (ip), vehicle: water); 103 % of control and 110 % of control (endpoint: mean survival time, dose: 0.8 mg/kg/injection, schedule: Q04DX003 (ip), vehicle: water). Further, the T/C runs as follows: (endpoint: mean survival time, dose: 1.0 mg/kg/injection, schedule: Q01DX009 (ip), vehicle: saline) 68 % of control and 73 % of control; (endpoint: mean survival time, dose: 1.0 mg/kg/injection, schedule: Q04DX004 (ip), vehicle: saline) 119 % of control; (endpoint: mean survival time, dose: 1.08 mg/kg/injection, schedule: Q04DX003 (ip), vehicle: water) 118 % of control; (endpoint: mean survival time, dose: 1.5 mg/kg/injection, schedule: Q04DX003 (ip), vehicle: saline) 121 % of control; (endpoint: mean survival time, dose: 1.5 mg/kg/injection, schedule: Q04DX004 (ip), vehicle: saline) 119 % of control; (endpoint: mean survival time, dose: 1.6 mg/kg/injection, schedule: Q04DX003 (ip), vehicle: saline) 120 % of control. Further, the T/C reads like this: (endpoint: mean survival time, dose: 1.6 mg/kg/injection, schedule: Q04DX003 (ip), vehicle: water) 117 % of control and 108 % of control; (endpoint: mean survival time, dose: 78.0 micrograms/kg/injection, schedule: Q01DX009 (ip), vehicle: water) 102 % of control; (endpoint: mean survival time, dose: 130.0 micrograms/kg/injection, schedule: Q01DX009 (ip), vehicle: water) 108 % of control; (endpoint: mean survival time, dose: 216.0 micrograms/kg/injection, schedule: Q01DX009 (ip), vehicle: water) 114 % of control; (endpoint: mean survival time, dose: 360.0 micrograms/kg/injection, schedule: Q01DX009 (ip), vehicle: water) 124 % of control; (endpoint: median survival time, dose: 62.5 micrograms/kg/injection, schedule: Q01DX009 (ip), vehicle: water) 115 % of control. The T/C by setting is: (endpoint: median survival time, dose: 125.0 micrograms/kg/injection, schedule: Q01DX009 (ip), vehicle: water) 121 % of control; (endpoint: median survival time, dose: 1000.0 micrograms/kg/injection, schedule: Q01DX009 (ip), vehicle: water) 95 % of control.
Regarding `O=C1C=C2C(=CCOC2O)O1` (stereo not drawn), the T/C is 108 % of control (endpoint: mean survival time, dose: 0.25 mg/kg/injection, schedule: Q01DX009 (ip), vehicle: Klucel (hydroxypropylcellulose) (HPC)); 89 % of control and 106 % of control (endpoint: mean survival time, dose: 0.5 mg/kg/injection, schedule: Q01DX009 (ip), vehicle: Klucel (hydroxypropylcellulose) (HPC)); 103 % of control (endpoint: mean survival time, dose: 0.75 mg/kg/injection, schedule: Q01DX009 (ip), vehicle: Klucel (hydroxypropylcellulose) (HPC)); 101 % of control and 104 % of control (endpoint: mean survival time, dose: 1.0 mg/kg/injection, schedule: Q01DX009 (ip), vehicle: Klucel (hydroxypropylcellulose) (HPC)); 104 % of control (endpoint: mean survival time, dose: 1.5 mg/kg/injection, schedule: Q01DX009 (ip), vehicle: Klucel (hydroxypropylcellulose) (HPC)); 102 % of control and 103 % of control (endpoint: mean survival time, dose: 2.0 mg/kg/injection, schedule: Q01DX009 (ip), vehicle: Klucel (hydroxypropylcellulose) (HPC)). The T/C was 104 % of control (endpoint: mean survival time, dose: 3.0 mg/kg/injection, schedule: Q01DX009 (ip), vehicle: Klucel (hydroxypropylcellulose) (HPC)); 95 % of control and 106 % of control (endpoint: mean survival time, dose: 4.0 mg/kg/injection, schedule: Q01DX009 (ip), vehicle: Klucel (hydroxypropylcellulose) (HPC)); 96 % of control (endpoint: mean survival time, dose: 6.0 mg/kg/injection, schedule: Q01DX009 (ip), vehicle: Klucel (hydroxypropylcellulose) (HPC)).
`CNC(=O)NCC1OC(n2cnc3c(=O)[nH]c(N)nc32)C(O)C1O` (stereo not drawn): the T/C under setting [4] is 103 % of control, the T/C under setting [5] was 97 % of control and the T/C under setting [6] is 103 % of control.
On to `[O-][n+]1ccnc2ccccc21`, for which the T/C (endpoint: mean survival time, dose: 100.0 mg/kg/injection, schedule: Q04DX002 (ip), vehicle: saline) is 105 % of control; the T/C (endpoint: mean survival time, dose: 200.0 mg/kg/injection, schedule: Q04DX002 (ip), vehicle: saline) is 116 % of control; the T/C (endpoint: mean survival time, dose: 400.0 mg/kg/injection, schedule: Q04DX002 (ip), vehicle: saline) is 108 % of control.

The record behind these values is PubChem BioAssay AID256 (DTP/NCI, 2004).
